pIC50: −log10 of the molar value. Values after ≈ are worked out from the molar mass of the structure shown.
Columns and labels:
[1] = test system: Mycobacterium tuberculosis; assay: Antitubercular activity against Mycobacterium tuberculosis H37Rv assessed as inhibition of cell wall biosynthesis after 10 to 14 days by bioluminescence assay relative to ethambutol; format: functional; set-up: scale not given: the % may be the effect or the level left
[2] = test system: Mycobacterium tuberculosis; assay: Antitubercular activity against Mycobacterium tuberculosis H37Rv after 10 to 14 days by BACTEC assay; format: functional
HepG2 = assay: Cytotoxicity against human HepG2 cells after 72 hrs by MTS assay; format: cell-based; conditions: HepG2, 72 h
[3] = Selectivity index, IC50 for human HepG2 cells to MIC for Mycobacterium tuberculosis H37Rv ATCC 25618; format: functional
[4] = test system: Mycobacterium tuberculosis; assay: Antitubercular activity against Mycobacterium tuberculosis H37Rv after 10 to 14 days by broth microdilution assay; format: functional

SMILES | Activity [1] [%] | MIC [2] [µM] | pIC50 (HepG2) | Selectivity Index [3] | MIC [4] [µM]
OC1CCN(CC2CCN(CC34CC5CC(CC(C5)C3)C4)CC2)CC1 | 59 | 15.6 (≈ 5.41 µg/mL) | 4.25 | 8.96 | 6.25 (≈ 2.17 µg/mL)
OC1CCN(CC2CCN(CC(c3ccccc3)c3ccccc3)CC2)CC1 | 125 | 16 (≈ 6.06 µg/mL) | 4.52 | 3.85 | 7.8 (≈ 2.95 µg/mL)
OC1CCN(CC2CCN(C3C4CC5CC(C4)CC3C5)CC2)CC1 (centres undefined) | 102 |  | 4.60 | 0.8 | 31.2 (≈ 10.4 µg/mL)
